Reference: PubChem BioAssay AID248 (DTP/NCI, 2004)
“And” between values parts separate entries of the source, which are not always exact repeats. Equal entries are not always repeated. Inconclusive results and toxic doses are left out. Cut-off read from the data, not from the text of the source: active = T/C of 150% or more; inactive = T/C below 125%.

System: L1210 leukemia ip in BDF1 mice, survival T/C
Test: NCI In Vivo Anticancer Drug Screen. Data for tumor model L1210 Leukemia (intraperitoneal) in B6D2F1 (BDF1) mice
Settings: endpoint: mean survival time, higher = longer survival
Procedure, shortened: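 Value reflects the ratio of survival in compound-treated mice to survival in vehicle-treated controls, with both groups carrying the same transplanted tumor.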

[1] = dose: 75.0 mg/kg/injection, schedule: Q01DX001 (ip), vehicle: saline
[2] = dose: 100.0 mg/kg/injection, schedule: Q01DX001 (ip), vehicle: saline
[3] = dose: 200.0 mg/kg/injection, schedule: Q01DX001 (ip), vehicle: saline
[4] = dose: 100.0 mg/kg/injection, schedule: Q04DX002 (ip), vehicle: Klucel (hydroxypropylcellulose) (HPC)
[5] = dose: 100.0 mg/kg/injection, schedule: Q04DX003 (ip), vehicle: saline
[6] = dose: 100.0 mg/kg/injection, schedule: Q01DX009 (ip), vehicle: Klucel (hydroxypropylcellulose) (HPC)
[7] = dose: 100.0 mg/kg/injection, schedule: Q04DX003 (ip), vehicle: Klucel (hydroxypropylcellulose) (HPC)
[8] = dose: 200.0 mg/kg/injection, schedule: Q01DX009 (ip), vehicle: Klucel (hydroxypropylcellulose) (HPC)
[9] = dose: 200.0 mg/kg/injection, schedule: Q04DX003 (ip), vehicle: Klucel (hydroxypropylcellulose) (HPC)
[10] = dose: 400.0 mg/kg/injection, schedule: Q01DX009 (ip), vehicle: Klucel (hydroxypropylcellulose) (HPC)
[11] = dose: 400.0 mg/kg/injection, schedule: Q04DX003 (ip), vehicle: Klucel (hydroxypropylcellulose) (HPC)

Measured: T/C

CCC(COC(=O)c1ccccc1)NC1CCCC1 (stereo not given)
inactive: [1] 102 % of control | dose: 150.0 mg/kg/injection, schedule: Q01DX001 (ip), vehicle: saline 103 % of control | dose: 300.0 mg/kg/injection, schedule: Q01DX001 (ip), vehicle: saline 111 % of control

O=C(Cc1ccccc1)NCc1ccccc1
inactive: dose: 25.0 mg/kg/injection, schedule: Q01DX001 (ip), vehicle: saline 97 % of control | dose: 50.0 mg/kg/injection, schedule: Q01DX001 (ip), vehicle: saline 101 % of control | [2] 104 % of control | [3] 104 % of control

Cc1n[n+]([O-])c(C)cc1Cl
inactive: [4] 104 % of control | dose: 200.0 mg/kg/injection, schedule: Q04DX002 (ip), vehicle: Klucel (hydroxypropylcellulose) (HPC) 104 % of control | dose: 400.0 mg/kg/injection, schedule: Q04DX002 (ip), vehicle: Klucel (hydroxypropylcellulose) (HPC) 119 % of control

OCC(O)COc1cccc2cccnc12 (stereo not given)
inactive: [5] 110 % of control | dose: 200.0 mg/kg/injection, schedule: Q04DX003 (ip), vehicle: saline 101 % of control | dose: 400.0 mg/kg/injection, schedule: Q04DX003 (ip), vehicle: saline 103 % of control

O=C(CCCl)NC(Cc1ccccc1)c1ccccc1 (stereo not given)
inactive: [6] 102 % of control | [7] 96 % of control | [8] 92 % of control | [9] 98 % of control | [10] 92 % of control | [11] 95 % of control

COc1ccc(Cl)cc1NC(=O)Oc1ccccc1C(C)C
inactive: dose: 100.0 mg/kg/injection, schedule: Q01DX001 (ip), vehicle: saline with Tween-80 96 % of control | dose: 100.0 mg/kg/injection, schedule: Q01DX009 (ip), vehicle: saline with Tween-80 96 % of control | dose: 100.0 mg/kg/injection, schedule: Q04DX002 (ip), vehicle: saline with Tween-80 95 % of control and 106 % of control | dose: 200.0 mg/kg/injection, schedule: Q01DX001 (ip), vehicle: saline with Tween-80 102 % of control | dose: 200.0 mg/kg/injection, schedule: Q01DX009 (ip), vehicle: saline with Tween-80 98 % of control | dose: 200.0 mg/kg/injection, schedule: Q04DX002 (ip), vehicle: saline with Tween-80 92 % of control and 109 % of control | dose: 400.0 mg/kg/injection, schedule: Q01DX001 (ip), vehicle: saline with Tween-80 87 % of control | dose: 400.0 mg/kg/injection, schedule: Q01DX009 (ip), vehicle: saline with Tween-80 89 % of control | dose: 400.0 mg/kg/injection, schedule: Q04DX002 (ip), vehicle: saline with Tween-80 95 % of control and 91 % of control

C[PH+](c1ccccc1)c1ccccc1.C[PH+](c1ccccc1)c1ccccc1.[Cl][Pd][Cl]
inactive: dose: 75.0 mg/kg/injection, schedule: Q04DX003 (ip), vehicle: saline 112 % of control | dose: 150.0 mg/kg/injection, schedule: Q04DX003 (ip), vehicle: saline 107 % of control | dose: 300.0 mg/kg/injection, schedule: Q04DX003 (ip), vehicle: saline 104 % of control

Cc1cc[n+](C)c2ccccc12
inactive: dose: 9.37 mg/kg/injection, schedule: Q01DX009 (ip), vehicle: saline with Tween-80 101 % of control | dose: 18.75 mg/kg/injection, schedule: Q01DX009 (ip), vehicle: saline with Tween-80 112 % of control | dose: 37.5 mg/kg/injection, schedule: Q01DX009 (ip), vehicle: saline with Tween-80 100 % of control | dose: 37.5 mg/kg/injection, schedule: Q04DX003 (ip), vehicle: saline 100 % of control | [1] 103 % of control

O=C(O)C1Cc2ccccc21 (stereo not given)
inactive: dose: 25.0 mg/kg/injection, schedule: Q04DX002 (ip), vehicle: Klucel (hydroxypropylcellulose) (HPC) 96 % of control | dose: 50.0 mg/kg/injection, schedule: Q04DX002 (ip), vehicle: Klucel (hydroxypropylcellulose) (HPC) 96 % of control | [4] 92 % of control

CC[N+](CC)(CCOC(=O)C1C2CC3OC(=O)C1C3C2)Cc1ccccc1 (stereo not given)
inactive: dose: 12.5 mg/kg/injection, schedule: Q04DX003 (ip), vehicle: saline 89 % of control | dose: 25.0 mg/kg/injection, schedule: Q04DX003 (ip), vehicle: saline 89 % of control | dose: 50.0 mg/kg/injection, schedule: Q04DX003 (ip), vehicle: saline 106 % of control | [5] 93 % of control

CC(C)CCCC(C)C1CCC2C3CC=C4CC(C(=O)NN)CCC4(C)C3CCC12C (stereo not given)
inactive: dose: 100.0 mg/kg/injection, schedule: Q04DX003 (ip), vehicle: saline with Tween-80 96 % of control | dose: 200.0 mg/kg/injection, schedule: Q04DX003 (ip), vehicle: saline with Tween-80 96 % of control | dose: 400.0 mg/kg/injection, schedule: Q04DX003 (ip), vehicle: saline with Tween-80 98 % of control

O=C(OC1CC2CC1C1C=CCC21)c1ccc([N+](=O)[O-])cc1 (stereo not given)
inactive: dose: 44.0 mg/kg/injection, schedule: Q01DX001 (ip), vehicle: carboxymethylcellulose (CMC) 94 % of control and 97 % of control | dose: 50.0 mg/kg/injection, schedule: Q01DX001 (ip), vehicle: carboxymethylcellulose (CMC) 102 % of control | dose: 67.0 mg/kg/injection, schedule: Q01DX001 (ip), vehicle: carboxymethylcellulose (CMC) 94 % of control and 100 % of control | dose: 100.0 mg/kg/injection, schedule: Q01DX001 (ip), vehicle: Klucel (hydroxypropylcellulose) (HPC) 104 % of control | dose: 100.0 mg/kg/injection, schedule: Q01DX001 (ip), vehicle: carboxymethylcellulose (CMC) 94 % of control and 100 % of control | [6] 101 % of control | dose: 150.0 mg/kg/injection, schedule: Q01DX001 (ip), vehicle: carboxymethylcellulose (CMC) 86 % of control and 91 % of control | dose: 200.0 mg/kg/injection, schedule: Q01DX001 (ip), vehicle: Klucel (hydroxypropylcellulose) (HPC) 93 % of control | dose: 200.0 mg/kg/injection, schedule: Q01DX001 (ip), vehicle: carboxymethylcellulose (CMC) 90 % of control | [8] 104 % of control | dose: 400.0 mg/kg/injection, schedule: Q01DX001 (ip), vehicle: Klucel (hydroxypropylcellulose) (HPC) 104 % of control | dose: 400.0 mg/kg/injection, schedule: Q01DX001 (ip), vehicle: carboxymethylcellulose (CMC) 96 % of control | [10] 101 % of control

CCCCCCCCCC(C)NC(=O)CCl (stereo not given)
inactive: dose: 50.0 mg/kg/injection, schedule: Q01DX009 (ip), vehicle: Klucel (hydroxypropylcellulose) (HPC) 87 % of control | [6] 97 % of control | [8] 90 % of control

CN(C)CCCOc1c2ccccc2cc2ccccc12
inactive: dose: 1.0 mg/kg/injection, schedule: Q01DX015 (ip), vehicle: carboxymethylcellulose (CMC) 92 % of control | dose: 2.0 mg/kg/injection, schedule: Q01DX015 (ip), vehicle: carboxymethylcellulose (CMC) 92 % of control | dose: 4.0 mg/kg/injection, schedule: Q01DX015 (ip), vehicle: carboxymethylcellulose (CMC) 92 % of control | dose: 8.0 mg/kg/injection, schedule: Q01DX015 (ip), vehicle: carboxymethylcellulose (CMC) 104 % of control and 90 % of control | dose: 16.0 mg/kg/injection, schedule: Q01DX015 (ip), vehicle: carboxymethylcellulose (CMC) 98 % of control

C=COC(=O)NC(CCC(=O)OC)C(=O)O (stereo not given)
inactive: [2] 92 % of control | [3] 101 % of control

O=C1C(Cl)=C(Nc2ccccc2)C(=O)c2ccccc21
inactive: [7] 101 % of control | [9] 101 % of control | [11] 102 % of control

CC1(c2ccc(Cl)cc2)NC(=O)N(CN2CCCCC2)C1=O (stereo not given)
inactive: dose: 12.5 mg/kg/injection, schedule: Q01DX009 (ip), vehicle: saline sonified 102 % of control | dose: 25.0 mg/kg/injection, schedule: Q01DX009 (ip), vehicle: saline sonified 96 % of control | dose: 50.0 mg/kg/injection, schedule: Q01DX009 (ip), vehicle: saline sonified 104 % of control
